Reference: patent publication US7776826B2, “Method for fostering bone formation and preservation” (Unigene Laboratories, Inc., priority 2004, dated 2010)

Columns and labels:
Assay type in all cases: in vivo, rat
[1] = system: Male Sprague-Dawley rats; experiment: pQCT analysis of left (ablated) and right (non-ablated) femoral shafts, Groups A-J; conditions: for Left femoral shaft Total density mean / Left femoral shaft Trabecular density mean: ablated femur; for new trabecular bone formation in left femoral shaft, in words: bmx, pQCT; for Right femoral shaft Total density mean / Right femoral shaft Trabecular density mean: non-ablated femur (bmx on contralateral left femur)
Text: FIG. 4 (a-d) are graphical representations of the results of Peripheral Quantitative Computerized Tomography (PQCT) analyses of, respectively, the left (ablated) and right (non-ablated) femoral shafts of the rats which are the subject of FIG. 3 above. FIGS. 4(a) and 4(b) illustrate the trabecular bone density observed in respectively, the left and right femoral shafts of these rats, whereas, FIGS. 4(c) and 4(d) illustrate the total bone density of the respective shafts. The meanings of the abbreviations used in FIGS. 4a-4d are identical to those described above with regard to FIG. 3 (a-e);
All of the data presented above are based on analyses carried out solely of the distal epiphysis portion of the rat femurs. Subsequently, however, to avoid the above-described drawbacks associated with reading the bone density at the level of the epiphysis, the inventors undertook to further analyze the remaining portions of the animals' femur bones and particularly, areas along the length of the cortical shaft. […] In the discussion which follows, directed to the results of these additional analyses, the reader is reminded that the bone marrow ablation (bmx) technique was practiced, in all cases, only on the left femur of the test animals. That is to say, there was no ablation of the marrow portion in the right femur. Thus, in the right femur views discussed below, wherein the illustration or graph relating to the right femur is labeled with the abbreviation “bmx”, etc. to describe the modality of treatment which the rat was subjected to, one should understand such labeling to mean that the view is of a right femur, or is of a graph which presents a value obtained pursuant to the analysis of such right femur, wherein the animal's corresponding left femur underwent a bone marrow ablation treatment in the manner described herein.
FIG. 4 (a-d) graphically illustrate the formation of both trabecular bone and, to some extent, total bone, within the left femoral shaft in rats from the Groups described in Tables 1 and/or 2 above, wherein the left femur was subjected to a bmx (bone marrow ablation) treatment coupled with a concurrent and/or subsequent administration of one or more bone anabolic agents, including parathyroid hormone (PTH[1-34]-NH2) and one or more anti-resorptive agents such as salmon calcitonin. […] The effects of these last two combinations protects the significant initial bone formation induced by bmx, but not to the same extent as parathyroid hormone (PTH[1-34]-NH2) alone.
FIGS. 4(b) and 4(d) are provided to illustrate the results obtained with the same animals' corresponding right femoral shafts, i.e, in which bone marrow ablation (bmx) was not performed. Little or no new bone formation was observed, i.e, the density remained substantially constant, since the only treatment received by the right femurs was due to the systemic administration of the bone anabolic agent. The agent(s) was administered for too short a period to have, by itself, any real positive effect on the bone density. In fact, the total bone density curve for the right femoral shaft presents a substantially straight line, which is attributable to the fact that the total density measurement includes a measurement of cortical bone. Furthermore, since the anabolic agent was not administered for a period sufficient to increase cortical bone density, the total density remained unchanged.
The table additionally includes the standard deviations (“sd”) for the values obtained for each analysis, which standard deviations are also indicated in FIG. 4 (a-d).
The results set forth in FIGS. 1, 2, 4, 5, 11 and 12 and the corresponding Tables, Nos. 1, 2, 3, 4, 5 and 6 discussed above were obtained with the use of a method for mechanically inducing increased osteoblast activity as illustrated in FIGS. 14A-14D. […]

[2] = system: Male Sprague-Dawley rats; experiment: MicroCT analysis of left femoral shafts, Groups A-J; conditions: left femoral shaft with bmx
Text: FIG. 6 illustrates the results of Micro Computerized Tomography (MicroCT) analyses of the left (ablated) femoral shafts of the rats which are the subjects of FIGS. 3-4. The abbreviations mean the same as in FIGS. 3-5;
FIG. 6 illustrates the results of a Micro Computerized Tomography (MicroCT) analysis of representative bones taken from the left femoral shaft of control and treated rats. The modality of treatment is set forth in the lower left corner of each of the views, and the abbreviations used therein are the same as those which appear in FIGS. 3-5. The Figure provides a view through a section of each such bone shaft.
The bones were thereafter subjected to a variety of sample analysis techniques. These included X-ray analysis wherein the femurs were X-rayed in individually sealed plastic bags; PIXIMUS analysis using a Lunar PIXIMUS scanner to measure bone mineral density in the bone marrow cavity of the femurs; MicroCT analysis; and blood analysis for osteocalcin, PTH, CT, NTX and growth factors.

[3] = system: Male Sprague-Dawley rats; experiment: Von Kossa stained sections of left femurs subjected to bmx; conditions: left femur with bmx, PTH daily for 21 days
Text: FIG. 8 illustrates sections (at 4× magnification) of undecalcified left femurs, subjected to bone marrow ablation (bmx), wherein the bone sections were stained with Von Kossa stain;
FIG. 8 provides views of stained and […] bone sections of the left femur of representative rats subjected to the following treatment modalities: Control day 0; Control day 21; Sham day 21; bmx day 0; bmx+PBS daily for 7 days; bmx+PBS daily for 14 days; bmx+PBS daily for 21 days; bmx+ parathyroid hormone (PTH[1-34]NH2) daily for 7 days; bmx+PTH daily for 14 days, and bmx+PTH daily for 21 days. […] These views provide substantial additional evidence of the efficacy of the method of the present invention.

Substance	Left femoral shaft Total density mean ([1]; Day 0) [mg/mL]	Left femoral shaft Trabecular density mean ([1]; Day 0) [mg/mL]	Left femoral shaft Total density mean ([1]; Day 7) [mg/mL]	Left femoral shaft Trabecular density mean ([1]; Day 7) [mg/mL]	Left femoral shaft Total density mean ([1]; Day 14) [mg/mL]	Left femoral shaft Trabecular density mean ([1]; Day 14) [mg/mL]	Left femoral shaft Total density mean ([1]; Day 21) [mg/mL]	Left femoral shaft Trabecular density mean ([1]; Day 21) [mg/mL]	new trabecular bone formation in left femoral shaft, in words [1]	Right femoral shaft Total density mean ([1]; Day 0) [mg/mL]	Right femoral shaft Trabecular density mean ([1]; Day 0) [mg/mL]	Right femoral shaft Total density mean ([1]; Day 7) [mg/mL]	Right femoral shaft Trabecular density mean ([1]; Day 7) [mg/mL]	Right femoral shaft Total density mean ([1]; Day 14) [mg/mL]	Right femoral shaft Trabecular density mean ([1]; Day 14) [mg/mL]	Right femoral shaft Total density mean ([1]; Day 21) [mg/mL]	Right femoral shaft Trabecular density mean ([1]; Day 21) [mg/mL]	new bone growth in MicroCT, in words [2]	bone growth within marrow cavity on stained sections, in words [3]
salmon calcitonin [CT, reference compound]	726.1	21.4	833.6	232.2	876.2	257	833.2	163.5	Beneficial results	787.2	12.9	797.4	1.2	821.9	10.9	821.3	10.8	–	–
PTH[1-34]-NH2	726.1	21.4	867.5	243.8	968.7	465.4	1046.7	511.2	greatest formation of new trabecular bone	787.2	12.9	848.2	1.5	871	13.7	864.8	10.7	most extensive new bone growth	greatest such increase
